Data taken from patent US8846928B2 (Portola Pharmaceuticals, Inc., priority 2010, dated 2014).

Molecular target: T1, full length active recombinant SYK enzyme (Homo sapiens, UniProt P43405)
T1 construct: full length active recombinant SYK enzyme (Millipore, Calif.); purchased Millipore
Assay: Inhibition of Syk tyrosine phosphorylation activity (LANCE TR-FRET kinase assay)
Format: biochemical
Method: Inhibition of Syk Tyrosine Phosphorylation Activity
Potency of candidate molecules for inhibiting Syk tyrosine phosphorylation activity is assessed by measuring the ability of a test compound to inhibit Syk-mediated tyrosine phosphorylation of a Syk-specific substrate.
SYK tyrosine phosphorylation activity is measured using the LANCE™ Technology developed by Perkin Elmer Life and Analytical Sciences (Boston, Mass.). LANCE™ refers to homogeneous time resolved fluorometry applications using techniques such as time-resolved fluorescence resonance energy transfer assay (TR-FRET) (see generally for procedures in Perkin Elmer Application Note—How to Optimize a Tyrosine Kinase Assay Using Time Resolved Fluorescence-Based LANCE Detection, wwww.perkinelmer.com/lifesciences). The assay principle involves detection of a phosphorylated substrate using energy transfer from a phosphospecific europium-labeled antibody to streptavidin-allophycocyanin as an acceptor.
To test the ability of candidate molecules to inhibit SYK tyrosine phosphorylation activity, molecules are reconstituted in 30% DMSO and serially diluted 1:3 with the final dilution containing DMSO in the absence of the candidate molecule. The final DMSO concentration in the assay is 3%. Kinase assays are performed as a two part reaction. […] The second reaction involves termination of the kinase reaction and the simultaneous addition of the detection reagents—europium-labeled anti-phosphotyrosine reagent (Eu-W1024-PY100, Perkin Elmer, Boston, Mass.) and Streptavidin-Allophycocyanin detection reagent (SA-APC, Prozyme, Calif.). The kinase reaction is performed in a black U-bottom 96-well microtitre plate. The final reaction volume is 50 μL and contains a final concentration of 1 nM active SYK enzyme, 550 nM SYK-substrate, and 100 μM ATP diluted in a buffer containing 50 mM Tris pH 7.5, 5 mM MgCl2, and 1 mM DTT. The reaction is allowed to proceed for 1 hour at room temperature. The quench buffer contains 100 mM Tris pH 7.5, 300 mM NaCl2, 20 mM EDTA, 0.02% Brij35, and 0.5% BSA. The detection reagents are added to the reaction mixture at the following dilutions-1:500 for Eu-W1024-PY100 and 1:250 for SA-APC. The kinase reaction is terminated by the addition of 50 μL quench buffer containing the detection reagents. The detection is allowed to proceed for 1 hr at room temperature. Detection of the phosphorylated substrate in the absence and presence of inhibitors is measured in the TR-FRET instrument, Analyst HT (Molecular Probes, Sunnyvale, Calif.) and the condition for measurements are set up using CriterionHost Release 2.0 (Molecular Probes, Sunnyvale, Calif.). The settings used are a follows: excitation 360 nm, emission 665-7.5 nm, beam splitter 350 nm 50/50, flash 100 pulses, delay 60 us, integration 400 us, z-height 2 mm. […] IC50s were derived by non-linear regression analysis. […]

| IC50 | SMILES |
| --- | --- |
| 100 to 1000 nM | Cc1cc(Nc2cc(N[C@H](Cc3ccc(O)cc3)C(N)=O)c(F)cc2C(N)=O)sn1 [Example 28, (R)-4-(1-amino-3-(4-hydroxyphenyl)-1-oxopropan-2-ylamino)-5-fluoro-2-(3-methylisothiazol-5-ylamino)benzamide] |
| 100 to 1000 nM | COC[C@H](N)CNc1ccc(C(N)=O)c(Nc2cc(C)ns2)c1 [Example 29, (R)-4-(2-amino-3-methoxypropylamino)-2-(3-methylisothiazol-5-ylamino)benzamide] |
| 100 to 1000 nM | CC[C@H](N)CNc1ccc(C(N)=O)c(Nc2cc(C)ns2)c1 [Example 30, (S)-4-(2-aminobutylamino)-2-(3-methylisothiazol-5-ylamino)benzamide] |
| 10 to 100 nM | Cc1cc(Nc2cc(NC[C@H](C)N)ccc2C(N)=O)sn1 [Example 31, (S)-4-(2-aminopropylamino)-2-(3-methylisothiazol-5-ylamino)benzamide] |
| 100 to 1000 nM | Cc1cc(Nc2cc(NC[C@@H](N)CC(C)C)ccc2C(N)=O)sn1 [Example 32, (S)-4-(2-amino-4-methylpentylamino)-2-(3-methylisothiazol-5-ylamino)benzamide] |
| 10 to 100 nM | CC[C@@H](Nc1ccc(C(N)=O)c(Nc2cc(C)ns2)c1)C(N)=O [Example 33, (R)-4-(1-amino-1-oxobutan-2-ylamino)-2-(3-methylisothiazol-5-ylamino)benzamide] |
| 10 to 100 nM | Cc1cc(Nc2cc(N[C@@H](C(N)=O)C3CC3)ccc2C(N)=O)sn1 [Example 34] |
| 10 to 100 nM | Cc1cc(Nc2cc(N[C@H](CC3CC3)C(N)=O)ccc2C(N)=O)sn1 [Example 35, (R)-4-(1-amino-3-cyclopropyl-1-oxopropan-2-ylamino)-2-(3-methylisothiazol-5-ylamino)benzamide] |
| 10 to 100 nM | COc1ccc(C[C@@H](Nc2cc(Nc3cc(C)ns3)c(C(N)=O)cc2F)C(N)=O)cc1 [Example 36, (R)-4-(1-amino-3-(4-methoxyphenyl)-1-oxopropan-2-ylamino)-5-fluoro-2-(3-methylisothiazol-5-ylamino)benzamide] |
| 10 to 100 nM | Cc1cc(Nc2cc(N[C@H](Cc3cccc(F)c3)C(N)=O)c(F)cc2C(N)=O)sn1 [Example 37, (R)-4-(1-amino-3-(3-fluorophenyl)-1-oxopropan-2-ylamino)-5-fluoro-2-(3-methylisothiazol-5-ylamino)benzamide] |
| 100 to 1000 nM | Cc1cc(Nc2cc(N[C@H](Cc3ccncc3)C(N)=O)c(F)cc2C(N)=O)sn1 [Example 38, (R)-4-(1-amino-1-oxo-3-(pyridin-4-yl)propan-2-ylamino)-5-fluoro-2-(3-methylisothiazol-5-ylamino)benzamide] |
| 100 to 1000 nM | Cc1cc(Nc2cc(N[C@H](Cc3cccnc3)C(N)=O)c(F)cc2C(N)=O)sn1 [Example 39, (R)-4-(1-amino-1-oxo-3-(pyridin-3-yl)propan-2-ylamino)-5-fluoro-2-(3-methylisothiazol-5-ylamino)benzamide] |
| 10 to 100 nM | COC[C@@H](Nc1cc(Nc2cc(C)ns2)c(C(N)=O)cc1F)C(N)=O [Example 40, (R)-4-(1-amino-3-methoxy-1-oxopropan-2-ylamino)-5-fluoro-2-(3-methylisothiazol-5-ylamino)benzamide] |
| 1 to 10 nM | NC(=O)c1cc(F)c(N[C@@H]2CCCC[C@@H]2N)nc1Nc1cccc(-n2nccn2)c1 [Example 41, 2-(3-(2H-1,2,3-triazol-2-yephenylamino)-6-(1R,2S)-2-aminocyclohexylamino)-5-fluoronicotinamide] |
| 1 to 10 nM | NC(=O)c1cc(F)c(N[C@@H]2CCCC[C@@H]2N)nc1Nc1cccc(-n2cncn2)c1 [Example 42, 2-(3-(1H-1,2,4-triazol-1-yl)phenylamino)-6-((1R,2S)-2-aminocyclohexylamino)-5-fluoronicotinamide] |
| 1 to 10 nM | NC(=O)c1cc(F)c(N[C@@H]2CCCC[C@@H]2N)nc1Nc1cccc(-n2ccnn2)c1 [Example 43] |

| IC50 | SMILES |
| --- | --- |
| 1 to 10 nM | NC(=O)c1cc(F)c(N[C@@H]2CCCC[C@@H]2N)nc1Nc1cccc(-n2cnnn2)c1 [Example 44, 2-(3-(1H-tetrazol-1-yl)phenylamino)-6-((1R,2S)-2-aminocyclohexylamino)-5-fluoronicotinamide] |
| 1 to 10 nM | NC(=O)c1cc(F)c(N[C@@H]2CCCC[C@@H]2N)nc1Nc1cccc(-n2cccn2)c1 [Example 45, 2-(3-(1H-pyrazol-1-yl)phenylamino)-6-((1R,2S)-2-aminocyclohexylamino)-5-fluoronicotinamide] |
| 1 to 10 nM | NC(=O)c1cc(F)c(N[C@@H]2CCCC[C@@H]2N)nc1Nc1cccc(-n2ccnc2)c1 [Example 46, 2-(3-(1H-imidazol-1-yl)phenylamino)-6-((1R,2S)-2-aminocyclohexylamino)-5-fluoronicotinamide] |
| 1 to 10 nM | NC(=O)c1cc(F)c(N[C@@H]2CCCC[C@@H]2N)nc1Nc1cccc(N2CCCC2)c1 [Example 47, 6-((1R,2S)-2-aminocyclohexylamino)-5-fluoro-2-(3-(pyrrolidin-1-yl)phenylamino)nicotinamide] |
| 10 to 100 nM | NC(=O)c1cc(F)c(N[C@@H]2CCCC[C@@H]2N)nc1Nc1cccc(N2CCOCC2)c1 [Example 48, 6-((1R,2S)-2-aminocyclohexylamino)-5-fluoro-2-(3-morpholinophenylamino)nicotinamide] |
| 10 to 100 nM | NC(=O)c1cc(F)c(N[C@@H]2CCCC[C@@H]2N)nc1Nc1ccc(-n2nccn2)cc1 [Example 49, 2-(4-(2H-1,2,3-triazol-2-yephenylamino)-6-(1R,2S)-2-aminocyclohexylamino)-5-fluoronicotinamide] |
| 1 to 10 nM | NC(=O)c1cc(F)c(N[C@@H]2CCCC[C@@H]2N)nc1Nc1ccc(-n2cncn2)cc1 [Example 50] |
| 1 to 10 nM | NC(=O)c1cc(F)c(N[C@@H]2CCCC[C@@H]2N)nc1Nc1ccc(-n2ccnc2)cc1 [Example 51, 2-(4-(1H-imidazol-1-yl)phenylamino)-6-((1R,2S)-2-aminocyclohexylamino)-5-fluoronicotinamide] |
| 1 to 10 nM | NC(=O)c1cc(F)c(N[C@@H]2CCCC[C@@H]2N)nc1Nc1ccc(-n2cccn2)cc1 [Example 52, 2-(4-(1H-pyrazol-1-yl)phenylamino)-6-((1R,2S)-2-aminocyclohexylamino)-5-fluoronicotinamide] |
| 10 to 100 nM | NC(=O)c1cc(F)c(N[C@@H]2CCCC[C@@H]2N)nc1Nc1ccc(N2CCCC2)cc1 [Example 53, 6-((1R,2S)-2-aminocyclohexylamino)-5-fluoro-2-(4-(pyrrolidin-1-yl)phenylamino)nicotinamide] |
| 10 to 100 nM | NC(=O)c1cc(F)c(N[C@@H]2CCCC[C@@H]2N)nc1Nc1ccc(N2CCOCC2)cc1 [Example 54, 6-((1R,2S)-2-aminocyclohexylamino)-5-fluoro-2-(4-morpholinophenylamino)nicotinamide] |
| 1 to 10 nM | NC(=O)c1cc(F)c(N[C@@H]2CCCC[C@@H]2N)nc1Nc1cccc(-c2ncccn2)c1 [Example 55, 6-((1R,2S)-2-aminocyclohexylamino)-5-fluoro-2-(3-(pyrimidin-2-yl)phenylamino)nicotinamide] |
| 1 to 10 nM | NC(=O)c1cc(F)c(N[C@@H]2CCCC[C@@H]2N)nc1Nc1cccc(-c2ccncn2)c1 [Example 56, 6-((1R,2S)-2-aminocyclohexylamino)-5-fluoro-2-(3-(pyrimidin-4-yl)phenylamino)nicotinamide] |
| 1 to 10 nM | NC(=O)c1cc(F)c(N[C@@H]2CCCC[C@@H]2N)nc1Nc1cccc(-c2cncnc2)c1 [Example 57, 6-((1R,2S)-2-aminocyclohexylamino)-5-fluoro-2-(3-(pyrimidin-5-yl)phenylamino)nicotinamide] |
| 1 to 10 nM | NC(=O)c1cc(F)c(N[C@@H]2CCCC[C@@H]2N)nc1Nc1ccc(-c2ncccn2)cc1 [Example 58, 6-((1R,2S)-2-aminocyclohexylamino)-5-fluoro-2-(4-(pyrimidin-2-yl)phenylamino)nicotinamide] |
| 1 to 10 nM | NC(=O)c1cc(F)c(N[C@@H]2CCCC[C@@H]2N)nc1Nc1ccc(-c2ccncn2)cc1 [Example 59, 6-(1R,2S)-2-aminocyclohexylamino)-5-fluoro-2-(4-(pyrimidin-4-yephenylamino)nicotinamide] |
